From the NIST ThermoML archive (doi:10.1021/acs.jced.5b00989)

Assay: molar heat capacity at constant pressure; xn = mol fraction of the nth substance listed
Conditions: 100 kPa, Liquid, Small sample (50 mg) DSC

CCCC[N+](CCCC)(CCCC)CCCC.[Cl-] [tetrabutylammonium chloride] + OCC(O)CO
x1 = 0.17
Conditions | molar heat capacity at constant pressure [J/K/mol]
298.2 K | 281.2
300.7 K | 282.5
303.2 K | 283.9
305.7 K | 285.4
308.2 K | 286.9
310.7 K | 288.1
313.2 K | 289.4
315.7 K | 290.7
318.2 K | 292
320.7 K | 293.4
323.2 K | 294.5
325.7 K | 296.1
328.2 K | 297.4
330.7 K | 298.9
333.2 K | 300.4
335.7 K | 301.9
338.2 K | 303.2
340.7 K | 304.6
343.2 K | 305.7
345.7 K | 306.9
348.2 K | 307.8
350.7 K | 308.6
353.2 K | 310.9

O=C(O)C(=O)O [ethanedioic acid] + C[N+](C)(C)CCO.[Cl-]
x2 = 0.33
Conditions | molar heat capacity at constant pressure [J/K/mol]
298.15 K | 270.8
300.65 K | 271.8
303.15 K | 272.1
305.65 K | 272.7
308.15 K | 273.6
310.65 K | 274.6
313.15 K | 275.4
315.65 K | 276.3
318.15 K | 276.8
320.65 K | 277
323.15 K | 277.1
325.65 K | 277.4
328.15 K | 277.8
330.65 K | 278.3
333.15 K | 278.7
335.65 K | 279.6
338.15 K | 280
340.65 K | 280.6
343.15 K | 281.2
345.65 K | 281.7
348.15 K | 281.9
350.65 K | 282.2
353.15 K | 282.9

O=C(O)CC(=O)O [propanedioic acid] + CCCC[N+](CCCC)(CCCC)CCCC.[Cl-]
x2 = 0.25
Conditions | molar heat capacity at constant pressure [J/K/mol]
298.2 K | 299.8
300.7 K | 302.6
303.2 K | 305.7
305.7 K | 309.4
308.2 K | 313.3
310.7 K | 316.9
313.2 K | 320.6
315.7 K | 323.7
318.2 K | 324.9
320.7 K | 328.8
323.2 K | 333.3
325.7 K | 335.9
328.2 K | 337.5
330.7 K | 339.2
333.2 K | 339.5
335.7 K | 340
338.2 K | 340.2
340.7 K | 340.6
343.2 K | 341.1
345.7 K | 341.2
348.2 K | 341.7
350.7 K | 342
353.2 K | 342.8

OCCOCCOCCO [triethylene glycol] + C[N+](C)(C)CCO.[Cl-]
x2 = 0.33
Conditions | molar heat capacity at constant pressure [J/K/mol]
298.15 K | 299
300.65 K | 300.3
303.15 K | 301.5
305.65 K | 302.8
308.15 K | 303.7
310.65 K | 304.5
313.15 K | 304.7
315.65 K | 304.6
318.15 K | 304.6
320.65 K | 304.3
323.15 K | 304.3
325.65 K | 304.9
328.15 K | 305.8
330.65 K | 306.7
333.15 K | 307.4
335.65 K | 308.6
338.15 K | 309.4
340.65 K | 309.9
343.15 K | 310
345.65 K | 311.8
348.15 K | 312.2
350.65 K | 312.4
353.15 K | 314.6

CCCC[N+](CCCC)(CCCC)CCCC.[Cl-] [tetrabutylammonium chloride] + OCCO
x1 = 0.25
Conditions | molar heat capacity at constant pressure [J/K/mol]
298.2 K | 288.3
300.7 K | 289.6
303.2 K | 291
305.7 K | 292.2
308.2 K | 293.2
310.7 K | 294.5
313.2 K | 295.8
315.7 K | 296.8
318.2 K | 297.9
320.7 K | 299.5
323.2 K | 300.5
325.7 K | 301.2
328.2 K | 302.4
330.7 K | 303.5
333.2 K | 304.8
335.7 K | 305.9
338.2 K | 306.9
340.7 K | 307.7
343.2 K | 308.5
345.7 K | 309.1
348.2 K | 309.6
350.7 K | 310.6
353.2 K | 312.6

CCCC[N+](CCCC)(CCCC)CCCC.[Cl-] [tetrabutylammonium chloride] + NC(N)=O
x1 = 0.8
Conditions | molar heat capacity at constant pressure [J/K/mol]
308.2 K | 590
310.7 K | 593
313.2 K | 598
315.7 K | 601.2
318.2 K | 602.6
320.7 K | 600.6
323.2 K | 601.5
325.7 K | 602.9
328.2 K | 601.7
330.7 K | 603
333.2 K | 604.9
335.7 K | 605.1
338.2 K | 603.2
340.7 K | 604
343.2 K | 604.4
345.7 K | 605.2
348.2 K | 604.8
350.7 K | 605.4
353.2 K | 605.9

C[P+](c1ccccc1)(c1ccccc1)c1ccccc1.[Br-] [methyltriphenylphosphonium bromide] + OCC(O)CO
x1 = 0.25
Conditions | molar heat capacity at constant pressure [J/K/mol]
298.15 K | 328.5
300.65 K | 329.6
303.15 K | 330.5
305.65 K | 331.6
308.15 K | 332.7
310.65 K | 333.7
313.15 K | 334.8
315.65 K | 335.8
318.15 K | 336.5
320.65 K | 338.1
323.15 K | 339.4
325.65 K | 339.6
328.15 K | 340.8
330.65 K | 341.8
333.15 K | 342.6
335.65 K | 343.5
338.15 K | 344.6
340.65 K | 345.7
343.15 K | 346.7
345.65 K | 347.8
348.15 K | 347.9
350.65 K | 348.3
353.15 K | 350.2

C[N+](C)(C)CCO.[Cl-] [choline chloride] + Oc1ccccc1
x1 = 0.25
Conditions | molar heat capacity at constant pressure [J/K/mol]
298.15 K | 219.3
300.65 K | 220.3
303.15 K | 221.2
305.65 K | 222.3
308.15 K | 223.3
310.65 K | 224.2
313.15 K | 225.1
315.65 K | 225.8
318.15 K | 226.6
320.65 K | 227.1
323.15 K | 227.9
325.65 K | 228.6
328.15 K | 229.3
330.65 K | 230.2
333.15 K | 231.1
335.65 K | 231.9
338.15 K | 232.6
340.65 K | 233.1
343.15 K | 233.5
345.65 K | 234.3
348.15 K | 234.5
350.65 K | 235
353.15 K | 236.8

O=C(O)CC(O)(CC(=O)O)C(=O)O [citric acid] + C[N+](C)(C)CCO.[Cl-]
x2 = 0.33
Conditions | molar heat capacity at constant pressure [J/K/mol]
298.15 K | 422
300.65 K | 422.9
303.15 K | 424
305.65 K | 425.2
308.15 K | 426.1
310.65 K | 427.2
313.15 K | 428.7
315.65 K | 429.8
318.15 K | 430.6
320.65 K | 431.9
323.15 K | 433
325.65 K | 433.5
328.15 K | 435.4
330.65 K | 436.7
333.15 K | 437.5
335.65 K | 438.6
338.15 K | 439.7
340.65 K | 440.6
343.15 K | 442.1
345.65 K | 446.1
348.15 K | 447.2
350.65 K | 446.8
353.15 K | 449.4

C[P+](c1ccccc1)(c1ccccc1)c1ccccc1.[Br-] [methyltriphenylphosphonium bromide] + O=C(O)CC(=O)O
x1 = 0.4
Conditions | molar heat capacity at constant pressure [J/K/mol]
298.15 K | 336.9
300.65 K | 338
303.15 K | 339.2
305.65 K | 340
308.15 K | 341
310.65 K | 342.1
313.15 K | 343.1
315.65 K | 343.9
318.15 K | 345.2
320.65 K | 346
323.15 K | 346.6
325.65 K | 347.4
328.15 K | 348.4
330.65 K | 350.1
333.15 K | 350.3
335.65 K | 350.7
338.15 K | 351.3
340.65 K | 351.5
343.15 K | 351.9
345.65 K | 352.1
348.15 K | 352.5
350.65 K | 354
353.15 K | 354.2

C[N+](C)(C)CCO.[Cl-] [choline chloride] + O=C[C@H](O)[C@@H](O)[C@H](O)[C@H](O)CO
x1 = 0.67
Conditions | molar heat capacity at constant pressure [J/K/mol]
298.15 K | 327.5
300.65 K | 329.1
303.15 K | 330.7
305.65 K | 332.4
308.15 K | 334.5
310.65 K | 336.7
313.15 K | 338.6
315.65 K | 340.6
318.15 K | 342.5
320.65 K | 344.5
323.15 K | 346
325.65 K | 347.2
328.15 K | 348.4
330.65 K | 349.5
333.15 K | 350.6
335.65 K | 350.9
338.15 K | 351.4
340.65 K | 352
343.15 K | 352.6
345.65 K | 353.8
348.15 K | 354.2
350.65 K | 354.4
353.15 K | 356.3

O=C(O)CC(=O)O [propanedioic acid] + C[N+](C)(C)CCO.[Cl-]
x2 = 0.5
Conditions | molar heat capacity at constant pressure [J/K/mol]
298.15 K | 226.9
300.65 K | 227.6
303.15 K | 228.3
305.65 K | 228.8
308.15 K | 229.4
310.65 K | 230.2
313.15 K | 230.6
315.65 K | 231.1
318.15 K | 231.7
320.65 K | 232.3
323.15 K | 232.7
325.65 K | 233.2
328.15 K | 233.8
330.65 K | 234.3
333.15 K | 234.9
335.65 K | 235.8
338.15 K | 237
340.65 K | 238
343.15 K | 238.4
345.65 K | 238.9
348.15 K | 239.5
350.65 K | 239.9
353.15 K | 240.8

CCCC[N+](CCCC)(CCCC)CCCC.[Cl-] [tetrabutylammonium chloride] + OCCOCCOCCO
x1 = 0.5
Conditions | molar heat capacity at constant pressure [J/K/mol]
298.2 K | 445
300.7 K | 447.8
303.2 K | 448.9
305.7 K | 450.6
308.2 K | 452.3
310.7 K | 454.2
313.2 K | 456.1
315.7 K | 457.4
318.2 K | 458.7
320.7 K | 460.2
323.2 K | 461.9
325.7 K | 463
328.2 K | 464.5
330.7 K | 466.2
333.2 K | 467.7
335.7 K | 469.2
338.2 K | 471.1
340.7 K | 472.6
343.2 K | 473.7
345.7 K | 475.2
348.2 K | 475.6
350.7 K | 476
353.2 K | 479.7

O=C(CO)[C@@H](O)[C@H](O)[C@H](O)CO [D-fructose] + C[N+](C)(C)CCO.[Cl-]
x2 = 0.67
Conditions | molar heat capacity at constant pressure [J/K/mol]
298.15 K | 311.5
300.65 K | 313.8
303.15 K | 316.7
305.65 K | 319.4
308.15 K | 322
310.65 K | 324.2
313.15 K | 326.2
315.65 K | 328.3
318.15 K | 330.5
320.65 K | 332.6
323.15 K | 334.1
325.65 K | 334.9
328.15 K | 335.8
330.65 K | 336.1
333.15 K | 335.8
335.65 K | 335.7
338.15 K | 335.2
340.65 K | 334.7
343.15 K | 335.2
345.65 K | 335.8
348.15 K | 336.6
350.65 K | 337.7
353.15 K | 340.1
